From US12509414B2, “Carbon quantum dot, a composition thereof and a method for treating infection by using same” (NATIONAL TAIWAN OCEAN UNIVERSITY, priority 2019, dated 2025) come the findings set out here.

Each structure is given as a SMILES string.

This experiment concerns E. coli (Escherichia coli). Put plainly: Antibacterial test, MIC by standard dilution method (O.D. 600). Conditions: FIG. 4. The class given is cell-based. The protocol:
The minimum inhibitory concentration (MIC) value of a carbon quantum dot was determined by a standard dilution method in a variety of tested bacterial strains, including E. coli (Escherichia coli), P. aeruginosa (Pseudomonas aeruginosa), S. enteritidis (Salmonella enterica), S. aureus (Staphylococcus aureus), MRSA (Methicillin-resistant Staphylococcus aureus, a multi-drug resistant Staphylococcus), S. iniae (Streptococcus iniae), and C. albicans (Candida albicans).
A single colony of each strain was removed from the culture medium, and inoculated in each suitable growth medium (10 mL). The cultured bacteria were grown at 37° C. with shaking (200 rpm), until the absorbance at 600 nm (O.D. 600) reaches 1.0 (optical path length: 1.0 cm). Each cell mixture was centrifuged at 1.0 mL (RCF 3,000×g, […], 25° C.), and washed twice with 5 mM sodium phosphate buffer (pH 7.4) before further use. The carbon quantum dots were mixed with a 10^5 CFU/mL bacterial solution, and the final concentration of the reaction bacterial solution was 10^4 CFU/mL. After reaction for 3 hours, each suitable growth medium was added. After 12 hours of incubation in the incubator at the culture temperature of each strain, the absorbance at 600 nm (O.D. 600) was measured.

Consider `NCCCCCCN` [C, 1,6-diamino-hexane], for which the “antibacterial ability (comparison in words)” value was “worst antibacterial effect”.
